Measured values: paper PMC6105827, “Antitrypanosomal 8-Hydroxy-Naphthyridines Are Chelators of Divalent Transition Metals” (Antimicrobial Agents and Chemotherapy, 2018)
Read-outs that look alike come from different tables or passages of the source.

What was measured:
[1] = system: L. donovani promastigotes; test: L. donovani promastigote compound sensitivity assay (with/without metal salts); conditions: L. donovani promastigotes
Procedure: (§1) The clonal Leishmania donovani cell line LdBOB (derived from MHOM/SD/62/1S-CL2D) was grown as promastigotes at 28°C, as described previously ([53]). Bloodstream-form T. brucei MiTat 1.2 clone 221a and its derived subline, 2T1, were cultured at 37°C in the presence of 5% CO2 in HMI9-T medium, as described previously ([54]). The human carcinoma HepG2 cell line was grown at 37°C with 5% CO2 in minimal Eagle's medium (MEM) with GlutaMAX (1×; Sigma-Aldrich), nonessential amino acids (Sigma-Aldrich), and 10% FBS. Human HepG2 and THP-1 cells used in this study were ethically sourced from the ATCC.
(§2) L. donovani intramacrophage ([7]), HepG2 ([55]), T. brucei ([56]), and L. donovani promastigote ([57]) compound sensitivity assays were carried out as described previously. Human HepG2 and THP-1 cells used in these assays were provided by the ATCC. Data were processed by using GRAFIT (version 5.0.4; Erithacus Software) and fitted to a 2-parameter equation to obtain the effective concentration inhibiting growth by 50% (EC50). Data are presented as the means of results from at least two independent experiments.
(§3) In the first instance, the maximum tolerated concentrations of ZnCl2, CaCl2, CuCl2, MgCl2, MnCl2, and FeCl2 were determined for each cell type. […] Standard drug sensitivity assays were carried out (as described above) for each cell type with compounds 1, 2, and 3 in the presence and absence of the maximum tolerated concentration of metal salt.

[2] = system: T. brucei bloodstream forms; test: microbe, parasite or virus in culture
Procedure: as §1, §2, §3

HepG2 cells = test: HepG2 compound sensitivity assay (with/without ZnCl2); conditions: HepG2 cells
Procedure: as §1, §2, §3

[3] = system: T. brucei bloodstream forms; test: Intracellular Zn2+ measurement with FluoZin-3 in T. brucei; assay type: cell-based, Trypanosoma brucei; conditions: 8-HNT compounds 5 μM, TPEN 8 μM
Procedure: (§4) L. donovani promastigotes were grown to 2 × 10^7 cells ml^−1 and harvested by centrifugation (10 min at 1,600 × g). T. brucei bloodstream forms were grown to 2 × 10^6 cells ml^−1 and harvested by centrifugation (5 min at 800 × g). Parasites were washed with PBS and resuspended to a final concentration of 2.5 × 10^7 parasites ml^−1 in fresh PBS. Cells were incubated with FluoZin-3 (final concentration, 5 μM), pluronic acid (final concentration, 5 μM), and 14 mM glucose (T. brucei only). Parasites were incubated for 60 min at room temperature (RT), washed three times with PBS, and then resuspended in PBS (with 14 mM glucose for T. brucei only) before being aliquoted into a black, clear-bottomed 96-well plate (final concentration of 2.5 × 10^7 cells ml^−1). 8-HNT or control compounds were added directly to cells, and fluorescence was measured immediately by using a Pherastar fluorescence spectrophotometer (excitation at 485 nm and emission at 520 nm). Calculations were performed in Excel. […] Parasites were confirmed to be viable by microscopy after the completion of the experiment.

[4] = system: L. donovani promastigotes; test: Intracellular Zn2+ measurement with FluoZin-3 in L. donovani; assay type: cell-based, Leishmania donovani; conditions: 8-HNT compounds 5 μM, TPEN 8 μM
Procedure: as §4

[5] = Cell-free fluorescence-based (FluoZin-3 salt) zinc binding assay; conditions: compounds and DFMO 1 to 100 μM; TPEN 10 μM
Procedure: ZnCl2 (5 μM) was incubated with various concentrations of our three 8-HNT compounds followed by the addition of 125 nM FluoZin-3 salt dye. Reaction mixtures were preincubated for 20 min at RT and then aliquoted into a black 96-well plate. Fluorescence was then measured with a Pherastar spectrophotometer (excitation at 485 nm and emission at 520 nm). Calculations were carried out in Excel.

L. donovani = conditions: cited from earlier work
[6] = read-out: EC50 against bloodstream-form T. brucei, substance alone (Fig. S2), mean ± SEM

| Structure (SMILES) | Tolerated concentration of exogenous metal salt [1] [µM] | Maximum concentration of metal salt having a minimal impact on cell growth [2] [µM] | EC50 [2, 6] [µM] | Maximum concentration of metal salt having a minimal impact on cell growth ([2]; T. brucei) [µM] | further results |
| --- | --- | --- | --- | --- | --- |
| [Cl][Fe][Cl] [FeCl2] | 100 | 10 | 16.8 ± 1.4 |  |  |
| [Cl-].[Cl-].[Zn+2] [ZnCl2] | 100 | 200 | 619 ± 12.6 |  | Tolerated concentration of exogenous metal salt (HepG2 cells): 100 µM |
| [Cl-].[Cl-].[Mg+2] [MgCl2] |  |  |  | 1000 |  |
| c1ccc(CN(CCN(Cc2ccccn2)Cc2ccccn2)Cc2ccccn2)nc1 [TPEN, N,N,N′,N′-tetrakis(2-pyridylmethyl)ethane-1,2-diamine] |  |  |  |  | Intracellular zinc level (FluoZin-3 fluorescence) [3]: decrease in fluorescence; Intracellular zinc level (FluoZin-3 fluorescence) [4]: decrease in fluorescence; Cell-free FluoZin-3 fluorescence (competition for Zn^2+ binding) [5]: reduction in the level of fluorescence; EC50 ([2]; Trypanosoma brucei, read-out: EC50 against bloodstream-form T. brucei, substance alone (Fig. S2), mean ± SEM): 4.1 ± 0.9 µM; Inhibition of L. donovani in vitro (L. donovani): inhibit |
| [Cl][Mn][Cl] [MnCl2] |  |  |  | 10 |  |
